Measured values taken from patent US20230094545A1, “S1P RECEPTOR MODULATORS” (AKAAL PHARMA PTY LTD, priority 2020, published 2023).
Entries after “also recorded” stand apart in the source; their conditions may differ. Like-named read-outs stand apart in the source and are kept apart here.

Assays:
[1] = test system: excision wound; assay: Animal model of excision wound; type: in vivo, Wistar rats; conditions: 3% w/w ointment, 0.20 g/animal wound, topically twice daily
Method: Two groups with six Wistar rats in each group were anaesthetized with a dose of 80 mg/kg of ketamine (i.p.) and the back of the animals were shaved. One excision wound was inflicted by cutting away (with a sterile scalpel) a 600-700 mm^2 section of the full thickness of the skin from a predetermined area. The wound was left undressed to the open environment. Group 1 rats were untreated and served as sham control. Group 2 animals were treated with a compound of Formula I in an ointment formulation (3% w/w). The ointment (0.20 g/animal wound) was applied topically twice daily.

[2] = test system: formalin induced nociception; assay: Formalin induced nociception (pain); type: in vivo, Sprague Dawley rats
Method: Forty male Sprague Dawley rats were assigned to different treatment and control groups containing 8 animals/group. The groups were treated with different doses of a compound of Formula I and received either 0.03, 0.3 and 3.0 mg/kg dose, administered orally 30 min before formalin injection. Tramadol hydrochloride (30 mg/kg) was administered orally 30 min before formalin injection as a positive control. Deionized water was used as a negative control (Vehicle) and administered orally 30 min before formalin injection. Individual rats were then gently restrained and formalin (5% in v/v in saline, 50 μl, s.c.) was injected into the plantar surface of the left hind paw using a 27G needle. Post-formalin nociceptive behaviour, paw flinching was recorded for 60 min, in bins of 5 min. The intra plantar injection of formalin (50 μl, 5% v/v) induced marked flinching of the ipsilateral rat paw with typical biphasic response in the vehicle/distilled water treated animals. […] Inhibition of nociceptive behaviour at 0.3 mg/kg (33%, p<0.05) and 3.0 mg/kg (45%, p<0.01) were statistically significant compared to vehicle control.

[3] = test system: EAE; assay: Animal model of multiple sclerosis (EAE induced with guinea pig MBP); type: in vivo, Lewis rats; conditions: EAE rats, oral every day until day 26
Method: The oral treatment with a compound of formula (I) was conducted in an animal model of multiple sclerosis. EAE was induced in female Lewis rats with guinea pig MBP (25 μg/rat).

[4] = test system: dinitrofluorobenzene (DNFB)-induced delayed-type hypersensitivity; assay: DNFB-induced delayed-type hypersensitivity (DTH); type: in vivo; conditions: 3 mg/kg twice daily
Method: The efficacy of compound of formula (I) was determined in an animal model of dinitrofluorobenzene (DNFB)-induced delayed-type hypersensitivity (DTH), an inflammatory model. The animals (n=9) were treated with the vehicle or a compound of formula (I), receiving a twice daily dose of 3 mg/kg. The efficacy end points were measured as Ear thickness before challenge and 24 h after challenge. Ear weight was measured 24 h after challenge. At sacrifice, right ear samples were collected and used for tissue MPO activity.

[5] = test system: kainic acid induced seizures; assay: Kainic acid model of epilepsy; type: in vivo, Sprague Dawley rats
Method: In an animal model of epilepsy, Sprague Dawley rats (n=6) were treated with the compound of Formula I or vehicle, dosed 1 hour prior to kainic acid administration (10 mg/kg, IP). […] There was significant reduction in seizures (70%, p<0.005) in the compound of formula (I) treated group. The changes observed in the hippocampal region of control animals included, minimal to mild neuronal cell death which included vaculations in neuronal cells particularly at C3 and C1 regions proving the compound of Formula I is neuroprotective.

[6] = Topical treatment of arthritis patients with pain; type: in vivo, human; conditions: human, in vivo, topical, 60 mg daily, day 7, 60 mg daily topical
Method: (§1) Fifteen arthritis patients who were experiencing pain were treated with the compound of Formula I@60 mg daily dosing as a topical treatment for seven consecutive days. […] The subjects blood parameters, urine alysis, vital signs, physical examination, ECG were normal.
(§2) The numerical rating scale for pain scoring (NRS) in a compound of Formula I treated group […] reduced from 7.1±1.38 (Day 1; baseline) to 5.8±2.12 (Day 3) and 4.8±2.72 (Day 7). The mean NRS score change from baseline was −1.3±1.54 (Day 3) and −2.3±2.06 (Day 7) points in arthritis participants treated with compound of Formula I. In osteoarthritis participants, the mean change in pain score from Day 1 to Day 7 was of −1.9±1.46 and −1.9±1.57 for pain felt and worst pain felt in 24 hours, respectively. […] The systemic exposure on day 7 ranged from 0.42 ng/mL to 2.44 ng/mL (average 0.79 ng/mL).

[7] = test system: arthritis pain; assay: Topical treatment of arthritis patients with pain; type: in vivo, human; conditions: for numerical rating scale for pain scoring (NRS): baseline Day 1 7.1±1.38
Method: as §1, §2

[8] = Topical treatment of atopic dermatitis patients; type: in vivo, human; conditions: human, in vivo; by week 3, 60 mg daily topical; read-out: systemic exposure
Method: (§3) Atopic dermatitis patients were treated with the compound of Formula I@60 mg daily dosing as topical treatment for 28 consecutive days.

[9] = test system: atopic dermatitis; assay: Topical treatment of atopic dermatitis patients; type: in vivo, human
Method: as §3

[10] = test system: mould; assay: Anti-mould (antifungal) activity on wheat flour bread; conditions: 1% ww and 3% ww water solution on bread, day 14, room temperature
Method: The compound of formula I solution as 0% ww, 1% ww and 3% ww as I mL water solution was added to a glass jar (5 mL) containing the fresh wheat flour bread (1 gm). The content was mixed well in order to wet the bread with solution. The content was kept in open glass cylinder for 14 days at room temperature and light (normal conditions) and the photos of Day 1 and Day 14 were taken (FIGS. 5A and B respectively). […] The mould is common in many skin indications and other human, animal and plant diseases. For example, Rhizopus stolonifera.

Structure (SMILES): CCCOc1ccc(-c2nc(-c3ccc4oc(C(N)(CO)CO)cc4c3)no2)cc1Cl [compound of formula (I)]
- wound healing [1]: did not inhibit or impair the wound healing
- inhibition of nociceptive behaviour ([2]; 0.3 mg/kg oral 30 min before formalin, p<0.05): 33%
- inhibition of nociceptive behaviour ([2]; 3.0 mg/kg oral 30 min before formalin, p<0.01): 45%
- nociceptive behaviour ([2]; 0.03, 0.3 and 3 mg/kg oral 30 min before formalin): inhibited nociceptive behaviour
- lymphopenia [3]: lymphopenia was less; also recorded: short-term and quickly reversed
- MPO activity (ear tissue) [4]: significantly reduced
- reduction of ear thickness ([4]; 24 h after challenge, p<0.0001): ~70%
- reduction of ear weight ([4]; 24 h after challenge, p<0.01): ~50%
- reduction in seizures ([5]; dosed 1 hour prior to kainic acid, p<0.005): 70%
- neuroprotection (hippocampal histology) ([5]; rat, in vivo): neuroprotective
- concentration at 7 day ([6]; read-out: systemic exposure, average): 0.79 ng/mL
- concentration at 7 day ([6]; read-out: systemic exposure, range): 0.42 to 2.44 ng/mL
- absolute lymphocyte count ([7]; 60 mg daily topical, 7 days): no systemic change in the absolute lymphocyte count
- safety and tolerability ([7]; 60 mg daily topical, seven days): safe and well tolerated
- mean NRS score change from baseline ([7]; Day 3): −1.3±1.54 points
- numerical rating scale for pain scoring (NRS) ([7]; Day 3): 5.8±2.12
- mean NRS score change from baseline ([7]; Day 7): −2.3±2.06 points
- numerical rating scale for pain scoring (NRS) ([7]; Day 7): 4.8±2.72
- positive PGART response ([7]; all treated participants (n=12), Day 3, 60 mg daily topical): 41.7 % participants
- positive PGART response ([7]; all treated participants (n=12), Day 7, 60 mg daily topical): 58.3 % participants
- mean change in pain score, pain felt ([7]; osteoarthritis participants, Day 1 to Day 7, p=0.0153): −1.9±1.46
- mean change in pain score, worst pain felt in 24 hours ([7]; osteoarthritis participants, Day 1 to Day 7, p=0.0205): −1.9±1.57
- positive PGART response ([7]; participants with osteoarthritis, Day 3): 28.6 % participants
- positive PGART response ([7]; participants with osteoarthritis, Day 7): 57.1 % participants
- concentration at 3 week [8]: 1 to 2.5 ng/mL
- EASI score and pruritus score ([9]; 60 mg daily topical, 28 days): reduction compared to baseline
- absolute lymphocyte count ([9]; 60 mg daily topical, 28 days): no systemic change in the absolute lymphocyte count
- tolerability ([9]; 60 mg daily topical, 28 days): well tolerated
- lymphopenia ([9]; by week 3): no lymphopenia event
- mould growth [10]: preventing mould growth at day 14
